Biological target: T1, CYP9K1 (Anopheles gambiae, UniProt Q8T633)
T1 sequence (Q8T633 1-531): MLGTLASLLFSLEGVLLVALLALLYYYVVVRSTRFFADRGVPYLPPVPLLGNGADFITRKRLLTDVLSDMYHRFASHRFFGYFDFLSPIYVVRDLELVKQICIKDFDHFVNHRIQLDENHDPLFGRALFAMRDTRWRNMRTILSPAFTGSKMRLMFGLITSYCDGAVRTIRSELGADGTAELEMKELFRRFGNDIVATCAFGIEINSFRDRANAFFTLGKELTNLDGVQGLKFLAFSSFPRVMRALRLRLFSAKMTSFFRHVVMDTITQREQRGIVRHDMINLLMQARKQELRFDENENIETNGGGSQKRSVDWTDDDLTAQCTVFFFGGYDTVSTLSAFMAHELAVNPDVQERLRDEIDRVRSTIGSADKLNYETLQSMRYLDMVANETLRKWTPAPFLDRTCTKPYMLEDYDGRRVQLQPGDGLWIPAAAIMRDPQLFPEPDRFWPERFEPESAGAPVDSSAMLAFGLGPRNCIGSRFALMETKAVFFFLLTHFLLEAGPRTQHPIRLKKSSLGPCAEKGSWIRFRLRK
T1 sequence (Q86QH5 1-679 partner): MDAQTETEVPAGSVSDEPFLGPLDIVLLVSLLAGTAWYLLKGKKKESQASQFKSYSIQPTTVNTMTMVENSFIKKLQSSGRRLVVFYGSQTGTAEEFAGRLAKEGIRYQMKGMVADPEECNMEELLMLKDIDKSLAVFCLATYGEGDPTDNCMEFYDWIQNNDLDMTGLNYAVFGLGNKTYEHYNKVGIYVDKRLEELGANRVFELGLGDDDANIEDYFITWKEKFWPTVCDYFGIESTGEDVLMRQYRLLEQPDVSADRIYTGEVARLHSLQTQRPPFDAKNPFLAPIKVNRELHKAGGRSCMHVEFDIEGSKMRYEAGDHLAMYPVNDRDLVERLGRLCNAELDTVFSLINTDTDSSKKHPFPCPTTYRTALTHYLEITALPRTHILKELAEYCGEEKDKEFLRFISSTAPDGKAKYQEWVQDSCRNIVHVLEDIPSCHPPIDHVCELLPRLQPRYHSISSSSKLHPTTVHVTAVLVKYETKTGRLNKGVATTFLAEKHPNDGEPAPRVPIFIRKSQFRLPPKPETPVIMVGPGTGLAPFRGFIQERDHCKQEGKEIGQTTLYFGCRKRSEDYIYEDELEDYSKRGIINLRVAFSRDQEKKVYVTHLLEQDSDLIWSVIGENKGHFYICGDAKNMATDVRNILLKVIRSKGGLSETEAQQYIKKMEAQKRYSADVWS
T1 sequence (Q86QH4 1-128 partner): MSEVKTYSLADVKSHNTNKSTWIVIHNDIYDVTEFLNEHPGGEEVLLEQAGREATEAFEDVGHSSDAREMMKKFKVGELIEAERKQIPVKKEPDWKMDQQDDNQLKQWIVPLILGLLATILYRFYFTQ
Experiment: HPLC substrate depletion, Michaelis-Menten fit
Type: biochemical
Details: NADPH generating system; AgCPR, AgCytb5; Tris-HCl 0.2 M pH 7.4, 0.25 mM MgCl2, 30 °C; 0.5-150 μM deltamethrin

In the case of `CC1(C)[C@H](C(=O)O[C@H](C#N)c2cccc(Oc3ccccc3)c2)[C@@H]1C=C(Br)Br` [deltamethrin], the Km was 28.2 µM.
